Test results taken from PubChem BioAssay (NCI).
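Cells were grown in 96-well plates and exposed to each compound for 48 hours at five concentrations; endpoints were interpolated linearly between bracketing concentrations, or set to the highest concentration if not reached. Abbreviation: GI50, concentration required for 50% inhibition of growth. TGI: concentration producing complete growth inhibition.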

Key:
Assay in all cases: NCI tumour cell line growth inhibition, 48 h
SF-539 CNS = test system: SF-539 CNS
IGROV1 ovarian = test system: IGROV1 ovarian
HOP-62 NSCLC = test system: HOP-62 NSCLC
OVCAR-3 ovarian = test system: OVCAR-3 ovarian
CAKI-1 renal = test system: CAKI-1 renal
M14 melanoma = test system: M14 melanoma
NCI-H23 lung = test system: NCI-H23 lung
HCT-116 colon = test system: HCT-116 colon
HCT-15 colon = test system: HCT-15 colon
SK-MEL-5 melanoma = test system: SK-MEL-5 melanoma

Compound	TGI (SF-539 CNS) [µM]	TGI (IGROV1 ovarian) [µM]	TGI (HOP-62 NSCLC) [µM]	TGI (OVCAR-3 ovarian) [µM]	TGI (CAKI-1 renal) [µM]	TGI (M14 melanoma) [µM]	TGI (NCI-H23 lung) [µM]	TGI (HCT-116 colon) [µM]	TGI (HCT-15 colon) [µM]	GI50 (IGROV1 ovarian) [µM]	GI50 (HOP-62 NSCLC) [µM]	GI50 (OVCAR-3 ovarian) [µM]	GI50 (CAKI-1 renal) [µM]	GI50 (M14 melanoma) [µM]	GI50 (NCI-H23 lung) [µM]	GI50 (HCT-116 colon) [µM]	GI50 (HCT-15 colon) [µM]	GI50 (SF-539 CNS) [µM]	GI50 (SK-MEL-5 melanoma) [µM]	TGI (SK-MEL-5 melanoma) [µM]
O=C1c2ccccc2NC1(c1ccccc1)c1c(-c2ccccc2)[nH]c2ccccc12 (centres undefined)	> 100	> 100	> 100	> 100	> 100	> 100	> 100	> 100	> 100											
COc1cc2c3c(n(CCCNCCCNCCCNCCCN)c(=O)c2cc1OC)-c1cc2c(cc1C3=O)OCO2		> 100	13	3.88	3.8	14.2	3.86	3.13	29	3.72	3.01	1.57	1.78	2.84	1.5	1.5	6.77			
CCN(CC)CCCC(C)Nc1nc(C)cc(Nc2ccc3nc(C)cc(N)c3c2)n1 (centres undefined)	43.6	> 100	> 100	96.9		> 100	> 100	> 100	> 100	28	38.9	32.1		33.7	32.1	32.4	> 100	20.8	> 100	> 100
CCCCCCCCCCCCCCCC[N+](C)(CCO)Cc1cnc[nH]1 (centres undefined)	4.75		1.68	3.31	4.47	2.22	5.3		26.1		0.456	0.995	0.622	0.598	0.858		3.03	1.78		
COC1=CC23CCCN2CCc2cc4c(cc2C3C1O)OCO4 (centres undefined)	> 100	> 100			92	> 100	> 100	> 100	> 100											54
CN(C)CCSc1cccc(-c2cc(-c3cccc(SCCN(C)C)c3)nc(SCCN(C)C)n2)c1	3.19	13.8	30.2	21.8		2.99	15.3	2.95	4.67											2.96
COc1ccc(NC(=O)CC/C(CC(=O)C(C)(C)C)=N\NC(=O)C(N)=O)cc1	> 100	> 100	> 100	> 100	> 100	> 100	> 100	> 100	> 100											
CC(=O)O[C@H]1CCC2[C@@H]3CCC4=C(O)C(=O)C(C#N)C[C@]4(C)C3CC[C@@]21C (some centres undefined)	> 100	> 100	> 100	> 100		> 100	> 100	> 100	> 100											71.1
O=C(c1ccccc1)c1oc2ccc(Br)cc2c1-c1cnn(-c2ccccc2)c1		> 100	> 100	> 100	> 100	> 100	> 100		> 100											
CC#C/C(=N\OC[C@H]1COCCN1)c1ccc2ncnc(Nc3ccc(OCc4cccc(F)c4)c(Cl)c3)c2c1	3.2		11.3	2.94	10.4	3.59	3.41	3.42	2.81		3	1.43	0.183	1.76	1.74	1.69	1.41	1.68	1.85	3.45
O=C(/C=C/C=C/c1c(C2CC2)nc2ccccc2c1-c1ccc(F)cc1)c1cccs1	6.65	> 100	7.25	4.99			> 100		3.92	1.59	2.74	1.5			2.35		1.06	2.39	1.34	2.74
CCN(CC)c1ccc2c(c1)Oc1nc(N)c(C#N)c(N)c1C2Sc1ccc(OC)cc1 (centres undefined)	3.04	3.9	3.43	3.1		3.33	3.02	3.12	3.11	1.9	1.88	1.69		1.77	1.52	1.65	1.53	1.64	1.54	2.9
COc1cc(O)c2c(c1)C(=O)C=C(Cl)C2=O	> 100	> 100		> 100	> 100	> 100	> 100	> 100	> 100											> 100
COc1ccc(N/N=C(\CCN(C)C)c2ccccc2)cc1	3.69	17.8	9.77	11.4		24.2	19.7	13.8	4.57											21.2
Cc1cc(Nc2c3ccccc3nc3ccccc23)ccc1NS(C)(=O)=O	14.9	11	17.9	20.1	15.6	14.1		11.6	20.5	3.07	4.61	6.13	3.36	3.69		3.12	4.12	3.74	4.2	16.6
CC(=O)OC1CC2Oc3ccc(C)cc3C(C)(O2)C1=O (centres undefined)	> 100	> 100	> 100	> 100		> 100	> 100	> 100	> 100											> 100
OC(COc1ccc(F)cc1)Cn1cnc2c(Cl)ncnc21 (centres undefined)	> 100	> 100	> 100	> 100	37.6			> 100	> 100	47.4	> 100	74	19.9			> 100	32.4	> 100	81.4	> 100
Cc1ccc(C2NC(=O)c3ccccc3N2)s1 (centres undefined)	14.4	> 100	> 100	50.2		> 100	58.2	> 100	> 100											> 100
